{
  "source": "paper PMC5654471",
  "about": "(Bioorganic & medicinal chemistry letters, 2016)",
  "key": {"MOLM-14 cells [1]": {"tested_on": "MOLM-14 cells", "assay": "ROS production", "type": "cell-based", "details": "approximately 2 hours post-treatment"}, "female NSG mice": {"tested_on": "female NSG mice", "assay": "Safety and tolerability in NSG mice", "type": "in vivo"}, "THP-1 cells": {"tested_on": "THP-1 cells", "assay": "ROS production", "type": "cell-based", "details": "approximately 2 hours post-treatment"}, "MOLM-14 cells [2]": {"tested_on": "MOLM-14 cells", "assay": "Double strand DNA breaks, γ-H2Ax immunofluorescence", "type": "cell-based", "details": "24 hours exposure, 200 nM, 1.0 and 2.0 µM"}},
  "data": [
    {"molecule": "O=C1C(C2=C(N3CC3)C(=O)c3ccccc3C2=O)=C(N2CC2)C(=O)c2ccccc21", "note": "[Compound 3, 3,3'-Di(aziridin-1-yl)-[2,2'-binaphthalene]-1,1',4,4'-tetraone]", "values": [
      {"measurement": "ROS production (RFU)", "setting": "MOLM-14 cells [1]", "value": "dose-dependent increase in ROS production"},
      {"measurement": "tolerability", "setting": "female NSG mice; 5, 10 and 15 mg/kg IP for 5 consecutive days, one week observation", "value": "tolerated the compound well"},
      {"measurement": "mean body weight loss", "setting": "female NSG mice; mouse, in vivo, ip", "value": "≤ 10", "unit": "%"},
      {"measurement": "ROS production (RFU)", "setting": "THP-1 cells", "value": "dose-dependent increase in ROS production"},
      {"measurement": "γ-H2Ax phosphorylation (double strand DNA breaks)", "setting": "MOLM-14 cells [2]", "value": "substantial γ-H2Ax phosphorylation"}
    ]}
  ]
}
